# Read-outs that look alike come from different tables or passages of the source.
# Key:
# IL-6 = IL-6 release from stimulated HaCaT cells, ELISA; assay type: cell-based, human; details: IFN-γ 50 ng/mL, 48 hrs
# Method in brief: (§1)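 HaCaT keratinocytes in DMEM/10% FBS at 37 °C, 5% CO2, vehicle 1% DMSO, stimulated with IFN-γ 50 ng/mL for 48 hrs to induce TNF-α and IL-6. Cleared supernatants analysed by ELISA; viability checked by Alamar blue (ex 544/em 590 nm).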
# PDE1A = PDE1A (Homo sapiens, UniProt P54750); assay: Fluorescence polarization assay PDE1A; assay type: biochemical; details: substrate cGMP, Ca-CaM
# Method: (§2) An experiment to check inhibition of various subtypes of the target Phosphodiesterase (PDE) enzyme in in-vitro assay was performed. […] PDE1A, PDE2A, PDE4A, PDE4B, PDE4C, PDE4D, PDE5A, PDE7A, PDE9A, PDE10A.
# Human IFN-γ = assay: IFN-γ release from stimulated PBMCs, ELISA; assay type: cell-based; details: LPS 100 ng/mL, 18 hrs
# Method: (§3) Fresh human blood from healthy volunteer was collected in anticoagulant (5 mM) ethylene diamine tetra acetic acid (EDTA) containing tubes. The growth medium used was RPMI-1640 medium (with 3% FBS) and incubated at 37° C. for 60 mins in a 5% CO2 incubator with vehicle used as 1% DMSO. The cell viability was checked at various time points using Alamar blue and fluorescence readings were taken at excitation of 544 nm and emission of 590 nm.
# (§4) PBMCs were stimulated with different stimulators as follows: • a. Cells were exposed to stimulator LPS at 100 ng/mL for 18 hrs to stimulate TNF-α, IL-6, IFN-γ, IL10, IL-1β • b. Cells were exposed to stimulator IFN-γ+LPS at 100 ng/mL+1 μg/mL for 18 hrs to stimulate IL-12 • c. Cells were exposed to stimulator PMA+Ionomycin at 50 ng/mL+1 μg/mL for 18 hrs to stimulate IL-23, IL-22, IL-17A, IL-17F
# (§5) After 18 hrs supernatants were collected and centrifuged to remove any cell debris and aliquots were used for ELISA.
# PDE4B = PDE4B (Homo sapiens, UniProt Q07343); assay: Fluorescence polarization assay PDE4B; assay type: biochemical; details: substrate cAMP
# Method: as §2
# Human IL-1β = assay: IL-1β release from stimulated PBMCs, ELISA; assay type: cell-based; details: LPS 100 ng/mL, 18 hrs
# Method: as §3, §4, §5
# HaCaT cells = assay: Keratinocyte (HaCaT) proliferation, MTT assay; assay type: cell-based, human; details: for IC50: Homo sapiens, HaCaT, read-out: IC50 of cell proliferation
# Method: An experiment to check keratinocyte proliferation inhibitory activity of selected compounds of Formula-I was performed to establish its application in skin disorders related to keratinocyte hyper-proliferation. HaCaT cells, a human immortalized cell line derived from keratinocytes, representing hyper-proliferating keratinocytes was investigated for anti-proliferative potential of the selected compounds by MTT assay.
# TNF-α = TNF-α release from stimulated HaCaT cells, ELISA; assay type: cell-based, human; details: IFN-γ 50 ng/mL, 48 hrs
# Method in brief: as §1
# PDE2A = PDE2A (Homo sapiens, UniProt O00408); assay: Fluorescence polarization assay PDE2A; assay type: biochemical; details: substrate cGMP
# Method: as §2
# Human IL-6 = assay: IL-6 release from stimulated PBMCs, ELISA; assay type: cell-based; details: LPS 100 ng/mL, 18 hrs
# Method: as §3, §4, §5
# Human TNF-α = assay: TNF-α release from stimulated PBMCs, ELISA; assay type: cell-based; details: LPS 100 ng/mL, 18 hrs
# Method: as §3, §4, §5
# Human IL-17F = assay: IL-17F release from stimulated PBMCs, ELISA; assay type: cell-based; details: PMA+Ionomycin, 18 hrs
# Method: as §3, §4, §5
# Human IL-17A = assay: IL-17A release from stimulated PBMCs, ELISA; assay type: cell-based; details: PMA+Ionomycin, 18 hrs
# Method: as §3, §4, §5
# Human IL-12 = assay: IL-12 release from stimulated PBMCs, ELISA; assay type: cell-based; details: IFN-γ+LPS, 18 hrs
# Method: as §3, §4, §5
# Human IL-22 = assay: IL-22 release from stimulated PBMCs, ELISA; assay type: cell-based; details: PMA+Ionomycin, 18 hrs
# Method: as §3, §4, §5
# Sequence of PDE2A (O00408 whole entry, species assumed): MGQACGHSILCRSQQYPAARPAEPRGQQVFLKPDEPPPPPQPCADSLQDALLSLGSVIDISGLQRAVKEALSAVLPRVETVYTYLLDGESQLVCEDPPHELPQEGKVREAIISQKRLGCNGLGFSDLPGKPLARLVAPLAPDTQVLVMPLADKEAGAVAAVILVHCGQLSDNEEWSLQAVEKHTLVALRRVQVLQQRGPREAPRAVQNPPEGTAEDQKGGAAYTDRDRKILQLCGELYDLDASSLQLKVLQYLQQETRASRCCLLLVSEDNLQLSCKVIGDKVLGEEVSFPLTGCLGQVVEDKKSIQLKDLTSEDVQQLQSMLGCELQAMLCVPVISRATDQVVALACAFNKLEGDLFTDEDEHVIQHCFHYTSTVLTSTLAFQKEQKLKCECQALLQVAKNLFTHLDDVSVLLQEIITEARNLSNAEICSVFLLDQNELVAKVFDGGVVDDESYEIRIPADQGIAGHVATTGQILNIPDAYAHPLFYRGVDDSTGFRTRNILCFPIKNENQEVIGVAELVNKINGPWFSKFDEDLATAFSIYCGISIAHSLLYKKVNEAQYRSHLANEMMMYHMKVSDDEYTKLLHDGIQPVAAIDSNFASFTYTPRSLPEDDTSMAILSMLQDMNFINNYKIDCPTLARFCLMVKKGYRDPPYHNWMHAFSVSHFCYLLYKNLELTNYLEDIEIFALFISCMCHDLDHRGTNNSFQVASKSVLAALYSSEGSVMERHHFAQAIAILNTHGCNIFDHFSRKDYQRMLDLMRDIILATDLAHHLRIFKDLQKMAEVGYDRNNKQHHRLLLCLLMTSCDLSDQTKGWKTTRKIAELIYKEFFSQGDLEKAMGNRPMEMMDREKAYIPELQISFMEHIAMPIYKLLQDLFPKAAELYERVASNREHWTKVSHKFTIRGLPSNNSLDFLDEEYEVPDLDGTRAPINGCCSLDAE
# Sequence of PDE4B (Q07343 whole entry, species assumed): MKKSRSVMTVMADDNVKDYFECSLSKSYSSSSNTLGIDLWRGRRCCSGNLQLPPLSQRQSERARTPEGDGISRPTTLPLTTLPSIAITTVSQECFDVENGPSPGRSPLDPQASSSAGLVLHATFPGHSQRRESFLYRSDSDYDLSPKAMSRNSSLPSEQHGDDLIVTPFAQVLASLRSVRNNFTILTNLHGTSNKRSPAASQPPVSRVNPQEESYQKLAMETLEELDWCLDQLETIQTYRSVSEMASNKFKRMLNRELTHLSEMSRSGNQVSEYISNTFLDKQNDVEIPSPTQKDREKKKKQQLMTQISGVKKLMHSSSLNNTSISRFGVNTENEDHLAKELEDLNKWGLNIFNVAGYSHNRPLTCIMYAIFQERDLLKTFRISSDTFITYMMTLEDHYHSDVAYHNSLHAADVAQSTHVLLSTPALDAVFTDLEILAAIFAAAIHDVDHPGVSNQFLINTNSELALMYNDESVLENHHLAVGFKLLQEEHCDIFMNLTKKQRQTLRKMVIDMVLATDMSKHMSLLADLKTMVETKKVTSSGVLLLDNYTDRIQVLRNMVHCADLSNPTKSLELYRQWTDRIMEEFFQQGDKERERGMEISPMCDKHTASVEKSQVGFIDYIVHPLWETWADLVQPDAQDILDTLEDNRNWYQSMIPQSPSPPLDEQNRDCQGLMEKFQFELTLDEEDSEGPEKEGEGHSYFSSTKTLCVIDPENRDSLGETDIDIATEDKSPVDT
# Sequence of PDE1A (P54750 whole entry, species assumed): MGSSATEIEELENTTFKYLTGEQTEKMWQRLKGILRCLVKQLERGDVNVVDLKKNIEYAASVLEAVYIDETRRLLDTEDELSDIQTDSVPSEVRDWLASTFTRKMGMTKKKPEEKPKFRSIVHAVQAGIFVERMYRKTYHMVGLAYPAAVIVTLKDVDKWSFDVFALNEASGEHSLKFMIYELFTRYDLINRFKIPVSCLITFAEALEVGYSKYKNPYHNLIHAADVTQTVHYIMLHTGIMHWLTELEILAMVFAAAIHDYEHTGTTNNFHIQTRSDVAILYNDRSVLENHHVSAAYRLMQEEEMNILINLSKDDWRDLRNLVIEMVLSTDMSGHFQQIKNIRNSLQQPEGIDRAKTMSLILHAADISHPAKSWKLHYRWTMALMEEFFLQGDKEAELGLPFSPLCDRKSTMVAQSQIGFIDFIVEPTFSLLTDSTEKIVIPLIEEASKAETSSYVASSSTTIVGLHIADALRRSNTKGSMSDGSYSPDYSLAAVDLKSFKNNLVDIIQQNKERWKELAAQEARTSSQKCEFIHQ
compound,measurement,setting,value
O=C(Nc1ncc([N+](=O)[O-])s1)c1ccccc1O [Tizoxanide],IL-6 Conc.,IL-6; 0.1 μM,87 ± 2 pg/mL
same,IL-6 Conc.,IL-6; 0.5 μM,80 ± 2 pg/mL
same,IL-6 Conc.,IL-6; 1 μM,78 ± 6 pg/mL
same,IC50,PDE1A,96.1 µM
same,Human IFN-γ concentration,Human IFN-γ; 1 μM,204 pg/mL
same,Human IFN-γ concentration,Human IFN-γ; 10 μM,111 pg/mL
same,Human IFN-γ concentration,Human IFN-γ; 25 μM,139 pg/mL
same,Human IFN-γ concentration,Human IFN-γ; 50 μM,191 pg/mL
same,IC50,PDE4B,> 500 µM
same,Human IL-1β concentration,Human IL-1β; 1 μM,4577 pg/mL
same,Human IL-1β concentration,Human IL-1β; 10 μM,4118 pg/mL
same,Human IL-1β concentration,Human IL-1β; 25 μM,4168 pg/mL
same,Human IL-1β concentration,Human IL-1β; 50 μM,2522 pg/mL
same,Cell proliferation (% of Control),"HaCaT cells; 0.01 μM, 24 h",98.2 % of Control
same,Cell proliferation (% of Control),"HaCaT cells; 0.01 μM, 48 h",109.5 % of Control
same,Cell proliferation (% of Control),"HaCaT cells; 0.01 μM, 72 h",87.4 % of Control
same,Cell proliferation (% of Control),"HaCaT cells; 0.1 μM, 24 h",93.9 % of Control
same,Cell proliferation (% of Control),"HaCaT cells; 0.1 μM, 48 h",120.1 % of Control
same,Cell proliferation (% of Control),"HaCaT cells; 0.1 μM, 72 h",82.7 % of Control
same,Cell proliferation (% of Control),"HaCaT cells; 0.5 μM, 24 h",93.2 % of Control
same,Cell proliferation (% of Control),"HaCaT cells; 0.5 μM, 48 h",108.9 % of Control
same,Cell proliferation (% of Control),"HaCaT cells; 0.5 μM, 72 h",87.7 % of Control
same,Cell proliferation (% of Control),"HaCaT cells; 1 μM, 24 h",99.7 % of Control
same,Cell proliferation (% of Control),"HaCaT cells; 1 μM, 48 h",112.4 % of Control
same,Cell proliferation (% of Control),"HaCaT cells; 1 μM, 72 h",81 % of Control
same,Cell proliferation (% of Control),"HaCaT cells; 5 μM, 24 h",101.6 % of Control
same,Cell proliferation (% of Control),"HaCaT cells; 5 μM, 48 h",89.3 % of Control
same,Cell proliferation (% of Control),"HaCaT cells; 5 μM, 72 h",77.9 % of Control
same,Cell proliferation (% of Control),"HaCaT cells; 10 μM, 24 h",94.9 % of Control
same,Cell proliferation (% of Control),"HaCaT cells; 10 μM, 48 h",74.1 % of Control
same,Cell proliferation (% of Control),"HaCaT cells; 10 μM, 72 h",64.3 % of Control
same,Cell proliferation (% of Control),"HaCaT cells; 50 μM, 24 h",67.3 % of Control
same,Cell proliferation (% of Control),"HaCaT cells; 50 μM, 48 h",59.9 % of Control
same,Cell proliferation (% of Control),"HaCaT cells; 50 μM, 72 h",38 % of Control
same,Cell proliferation (% of Control),"HaCaT cells; 100 μM, 24 h",53.5 % of Control
same,Cell proliferation (% of Control),"HaCaT cells; 100 μM, 48 h",38.6 % of Control
same,Cell proliferation (% of Control),"HaCaT cells; 100 μM, 72 h",22.8 % of Control
same,IC50,HaCaT cells; 48 h,59.9 µM
same,IC50,HaCaT cells; 72 h,22.4 µM
same,TNF-α Conc.,TNF-α; 0.1 μM,2.9 ± 0.2 pg/mL
same,TNF-α Conc.,TNF-α; 0.5 μM,3.2 ± 0.1 pg/mL
same,TNF-α Conc.,TNF-α; 1 μM,2.3 ± 0.5 pg/mL
same,IC50,PDE2A,12 µM
same,Human IL-6 concentration,Human IL-6; 1 μM,6122 pg/mL
same,Human IL-6 concentration,Human IL-6; 10 μM,5225 pg/mL
same,Human IL-6 concentration,Human IL-6; 25 μM,3428 pg/mL
same,Human IL-6 concentration,Human IL-6; 50 μM,2086 pg/mL
same,Human TNF-α concentration,Human TNF-α; 1 μM,5351 pg/mL
same,Human TNF-α concentration,Human TNF-α; 10 μM,3244 pg/mL
same,Human TNF-α concentration,Human TNF-α; 25 μM,3489 pg/mL
same,Human TNF-α concentration,Human TNF-α; 50 μM,2440 pg/mL
same,Human IL-17F concentration,Human IL-17F; 1 μM,151 pg/mL
same,Human IL-17F concentration,Human IL-17F; 10 μM,0 pg/mL
same,Human IL-17F concentration,Human IL-17F; 25 μM,0 pg/mL
same,Human IL-17F concentration,Human IL-17F; 50 μM,0 pg/mL
same,Human IL-17A concentration,Human IL-17A; 1 μM,39 pg/mL
same,Human IL-17A concentration,Human IL-17A; 10 μM,0 pg/mL
same,Human IL-17A concentration,Human IL-17A; 25 μM,0 pg/mL
same,Human IL-17A concentration,Human IL-17A; 50 μM,0 pg/mL
same,Human IL-12 concentration,Human IL-12; 1 μM,4715 pg/mL
same,Human IL-12 concentration,Human IL-12; 10 μM,1401 pg/mL
same,Human IL-12 concentration,Human IL-12; 25 μM,381 pg/mL
same,Human IL-12 concentration,Human IL-12; 50 μM,101 pg/mL
same,Human IL-22 concentration,Human IL-22; 1 μM,7858 pg/mL
same,Human IL-22 concentration,Human IL-22; 10 μM,1189 pg/mL
same,Human IL-22 concentration,Human IL-22; 25 μM,280 pg/mL
same,Human IL-22 concentration,Human IL-22; 50 μM,0 pg/mL

# — patent US11786492B2, “Therapeutic agent for phosphodiesterase inhibition and its related disorders” (Novalead Pharma Inc, priority 2017, dated 2023)
